Here are results for 19 compounds from ChEMBL document CHEMBL1123995, “N-sulfonyl imidates as a novel prodrug form for an ester function or a sulfonamide group” (J Med Chem, 1988).

Each structure is given as a SMILES string.

What all share (assay type): ADME
A short description of data set [1]: Half life of 80% diluted human plasma with 0.01 M phosphate buffer of pH 7.4. The note with it: 80% human plasma.
Data set [2] is described as follows: Half-life of hydrolysis at pH 7.4 at 37 degree C. The note with it: buffer.
Data set [3] is described as follows: Half-life of hydrolysis at pH 6.0 at 37 degree C. The note with it: buffer.
Data set [4] is described as follows: Half-life of hydrolysis at pH 4.0 at 37 degree C. Conditions: buffer.

On to `CCO/C=N\S(=O)(=O)c1ccc(C)cc1`, for which the half-life is less than 0.0167 h in data set [1], 0.0133 h in data set [2] and 0.02 h in data set [3].
Regarding `Cc1ccc(S(=O)(=O)/N=C(\OCCN(C)C)c2ccccc2)cc1.Cl`, the half-life is less than 0.0167 h in data set [1], 0.045 h in data set [2] and 0.583 h in data set [4].
On to `COC(=NS(=O)(=O)c1ccc(C)cc1)OC`, for which the half-life in data set [1] was determined as 0.533 h; in data set [2], 4.25 h; in data set [3], 14.5 h.
On the same counts, the results for `Cc1ccc(S(=O)(=O)/N=C(\OC2CCN(C)CC2)c2ccccc2)cc1.Cl` are 0.6 h, 1.48 h and 1.5 h.
Turning to `CCOC(=NS(=O)(=O)c1ccc(C)cc1)OCC`, the figures for the half-life in data set [1] and in data set [2] were 1.3 h and 26.3 h, respectively.
In the case of `Cc1ccc(S(=O)(=O)/N=C(\Oc2ccccc2C(=O)OCC(=O)N(C)C)c2ccccc2)cc1`, the half-life in data set [1] is 0.01 h; in data set [2], 1.52 h; in data set [3], 1.55 h.
In the case of `CCO/C(C)=N\S(=O)(=O)c1ccc(C)cc1`, the half-life in data set [1] was found to be 0.107 h; in data set [2], 2.4 h; in data set [3] it was 2.92 h.
On to `CCCC/C(=N/S(=O)(=O)c1ccc(C)cc1)OC`, for which the half-life is 0.467 h in data set [1] and 2.67 h in data set [2].
Take `CCO/C(=N\S(=O)(=O)c1ccc(C)cc1)c1ccccc1`: the figures for the half-life in data set [1], in data set [2] and in data set [3] were 0.333 h, 2.92 h and 3.67 h, respectively.
Consider `Cc1ccc(S(=O)(=O)/N=C(\OCCN2CCCC2=O)c2ccccc2)cc1`, for which the half-life in data set [1] stood at 0.08 h; in data set [2], 1.25 h.
Consider `Cc1ccc(S(=O)(=O)/N=C(\OCCCN(C)C)c2ccccc2)cc1.Cl`, for which the values for the half-life in data set [1], in data set [2] and in data set [4] were 0.0667 h, 0.183 h and 0.883 h, respectively.
Regarding `Cc1ccc(S(=O)(=O)/N=C(\OCC(=O)N(C)C)c2ccccc2)cc1`, the half-life in data set [1] was 0.0333 h; in data set [2], 2.4 h.
For `CO/C(=N\S(=O)(=O)c1ccc(C)cc1)c1ccccc1` the same measures were 0.117 h and 1.9 h.
`CCCO/C(=N\S(=O)(=O)c1ccc(C)cc1)c1ccccc1`: the half-life in data set [1] amounted to 0.333 h; in data set [2], 2.92 h.
On to `Cc1ccc(S(=O)(=O)/N=C(\OC(C)C)c2ccccc2)cc1`, for which the half-life in data set [1] amounted to 3.25 h; in data set [2], 17.4 h; in data set [3], 23 h.
As for `Cc1ccc(S(=O)(=O)/N=C(\OCCN2CCCCC2)c2ccccc2)cc1.Cl`, the half-life in data set [1] was less than 0.0167 h; in data set [2] it was 0.0217 h; in data set [4], 0.583 h.
Consider `CCC/C(=N/S(=O)(=O)c1ccc(C)cc1)OC`, for which the half-life in data set [1] is 0.533 h; in data set [2] it was 2.42 h.
On the same counts, the results for `CCO/C(CC)=N\S(=O)(=O)c1ccc(C)cc1` are 0.4 h and 1.8 h.
`CO/C(C)=N\S(=O)(=O)c1ccc(C)cc1`: the half-life worked out at 0.135 h in data set [1], 1.38 h in data set [2] and 2.5 h in data set [3].

What is called half-life is how long it takes for the measured level to halve. A high value points to slow loss.
